# In patent US20230346940A1, “Method And System For Identifying And Validating Shared Candidate Antigens And Shared Antigen-Specific T Lymphocyte Pairs” (National University of Singapore, priority 2019, published 2023):
# Entries after “also recorded” stand apart in the source; their conditions may differ.
# T1: MARK3 splice variant (inclusion of exon 24; MARK3 isoforms 1 and 3) peptide on HLA-A*11 (human)
# T1 peptide: RNMSFRFIK
# B1: MARK3-specific TCR (MARK3 TRA chain and MARK3 TRB chain) (TCR, V domains shown)
# Valpha: SQKIEQNSEALNIQEGKTATLTCNYTNYSPAYLQWYRQDPGRGPVFLLLIRENEKEKRKERLKVTFDTTLKQSLFHITASQPADSATYLCAPYTGGFKTIFGAGTRLFVKA
# Vbeta: DTGVSQNPRHKITKRGQNVTFRCDPISEHNRLYWYRQTLGQGPEFLTYFQNEAQLEKSRLLSDRFSAERPKGSFSTLEIQRTEQGDSAMYLCASSSPRVGYGYTFGSGTRLTVV
# Experiments:
# [1] = system: CD8+ T cells; assay: moDC/CD8+ T-cell co-culture of healthy donors, tetramer FACS (immunogenicity); assay type: cell-based, human; conditions: HLA-A11 positive healthy donors, SVP 2.5 μM loaded moDC, 10 days co-culture, PE/APC tetramers
# Text: Antigen specific T-cells for LRR1, GRINA, and ZNF670 were initially identified in the SVP/HLA-A11 tetramer CyTOF screen (as described in Example 13). The immunogenicity of these targets was further assessed by testing whether antigen specific T-cells could be expanded in the PBMC of healthy donors who were HLA-A11 positive. PBMC were obtained from healthy donors and an aliquot was used to isolate monocytes (CD14 positive selection kit, STEMCELL Technologies) for subsequent differentiation to dendritic cells. Briefly, differentiation of monocytes to dendritic cells was carried out by culturing the isolated CD14 cells with IL4 (10 ng/ml) and GM-CSF (800 IU/ml) for 3 days and maturating the dendritic cells with IL4 (10 ng/ml), GM-CSF (800 IU/ml), LPS (10 ng/ml), IFN-γ (100 IU/ml), and the LRR1, GRINA and ZNF670 HLA-A11 SVP (2.5 μM) overnight. These monocyte derived dendritic cells were then cultured with CD8+ T cells which were isolated from another aliquot of PBMCs from the same donor using EasySep CD8 T cell isolation kit, STEMCELL Technologies. After 10 days of co-culture, expansion of antigen-specific T cells was detected by staining with tetramers (labelled with PE and APC) that have been loaded with the LRR1, GRINA and ZNF670 HLA-A11 SVP. […] Antigen-specific T-cells for these SVPs are not observed in CD8+ T cells in unstimulated PBMCs from healthy donors, whereas SVP-specific T-cells can be observed when they have been co-cultured with monocyte-derived dendritic cells that have been loaded with the SVP. In summary, antigen-specific CD8 T cells for LRR1, GRINA and ZNF670 were able to be generated in healthy donors, showing that these SVPs are immunogenic.
# [2] = system: CD8+ T cells; assay: HLA-A11 tetramer CyTOF screen of CRC patient PBMC; assay type: cell-based, human; conditions: 8 HLA-A11 positive CRC patients; for antigen specific CD8+ T cells detected in CRC patients: validation cohort
# Experimental: To determine if CRC patients have CD8+ T cells that target any of the 102 peptides that were identified in Example 12, a CyTOF screen was conducted on a new cohort of 8 CRC patients (validation cohort) using MHC tetramer staining of PBMC (FIG. 19(a)). These CRC patients are all positive for HLA-A11.
# The 102 peptides were chemically synthesized by Mimotopes. These peptides were loaded onto biotinylated HLA-A11 by UV-mediated exchange. Streptavidin, labelled with three heavy metal barcodes, was bound to the peptide-loaded HLA-A11 to make the HLA-tetramers used for staining PBMCs.
# To increase the sensitivity of detecting antigen-specific T cells, two different sets of heavy metal barcodes were used for each peptide. PBMCs from each patient were stained with these two sets of peptide-loaded HLA tetramers. Frequency co-concordance was used as an indication of specific staining for rare events.
# [3] = system: CD8+ T cells; assay: HLA-A11 tetramer CyTOF screen of gastric cancer patient PBMCs; assay type: cell-based, human; conditions: for CD8+ T-cells capable of recognizing the peptide antigen (HLA-A11 tetramer staining): PBMCs of 7 gastric cancer patients, validation cohort, CyTOF
# Text: In one specific example, as shown schematically in FIG. 7, the method 150 may include HLA tetramer staining of peripheral blood, including preparing HLA tetramers by bacterially expressing and purifying biotin tagged HLA loaded with a UV cleavable peptide. Individual shared candidate antigens are then loaded onto the HLA molecule by UV mediated peptide exchange. Addition of heavy metal barcoded streptavidin causes formation of a tetramer comprising a shared candidate antigen. Peripheral blood (e.g. PBMC) from one or more cohort of patients having the medical condition is stained with a pool of the HLA tetramer and analysis is then done using CyTOF.
# (§1) To determine if GC patients have CD8+ T cells that target any of the 77 peptides that were identified in Example 2, a CyTOF screen was conducted on a new cohort of GC patients (the Validation cohort) using MHC tetramer staining of peripheral blood. The CyTOF screen was performed as described in Leong and Newell (2015). Chemically synthesized peptides were supplied by Mimotopes and were stored as dry powder at −20° C. These peptides were loaded onto biotinylated HLA-A11 by UV-mediated exchange. Streptavidin labelled with three heavy metal barcodes was bound to the peptide loaded HLA-A11 to make the HLA-tetramers used for staining peripheral blood (FIG. 7). HLA-A11 tetramer staining of 7 gastric cancer patients derived PBMCs was performed (FIG. 12(a)) and control peptides against the Epstein-Bar Virus (EBV) viral antigen were incorporated as positive control (FIG. 13). […] This antigen was generated from an alternative splicing event of the MARK3 gene identified in Example 2 (FIG. 11(b)). The sequence of the MARK3 splice variant antigen used in the CyTOF studies was RNMSFRIK (SEQ ID NO: 1) and the EBV peptide sequence was […] (SEQ ID NO: 2). […] Patient SC020 was also positive for T Cells that reacted with the positive control peptide from the EBV (FIG. 13). The presence of the MARK3 splice variant antigen in a fresh PBMC isolate from gastric cancer patient, SC020, was further confirmed by a FACS analysis using fluorescently labelled MARK3-A11-RNMSFRIK peptide tetramers (FIG. 12(b)).
# [4] = system: CTLs; assay: ELISPOT assay for IFN-γ in PBMCs from healthy donors; assay type: cell-based, human; conditions: PBMCs from healthy donors with or without stimulation with peptide
# Experimental: T cells having a shared splice variant antigen, such as MARK3, can be expanded ex-vivo. In the case of MARK3, PBMC were obtained from healthy donors. An aliquot of these PBMCs was used to isolate monocytes (Human Monocyte Isolation Kit, STEMCELL Technologies) for subsequent differentiation to dendritic cells (ImmunoCult Dendritic Cell Culture kit, STEMCELL Technologies). These monocyte derived dendritic cells were treated with mitomycin C (30 μg/ml) to prevent outgrowth of these cells. These dendritic cells were then loaded with MARK3 peptide and used as antigen-presenting cells. CD8+ T cells were isolated (EasySep Human CD8+ T cell isolation kit, STEMCELL Technologies) from another aliquot of PBMCs and these cells were co-cultured with the antigen-presenting cells to stimulate the expansion of MARK3 specific T cells. To generate sufficient number of MARK3-specific T cells for functional characterisation or TCR identification, MARK3 peptide loaded monocyte derived dendritic cells or artificial antigen presenting cells may be used to further stimulate expansion of MARK3 specific T cells. Expansion of MARK3 specific T cells using the above method can be used for the treatment of patients.
# Characterization of the MARK3 antigen and CD8+T lymphocytes was carried out by first determining whether MARK3 specific CTLs could be expanded in healthy donor PBMCs (as shown in Example 6). […]
# [5] = system: CD8 T cells; assay: FACS analysis with fluorescently labelled A11 MHC tetramers; assay type: cell-based, human; conditions: fresh PBMC isolate from gastric cancer patient SC020
# Experimental: as §1, with “The presence of the MARK3 splice variant antigen in a fresh PBMC isolate from gastric cancer patient, SC020, was further confirmed by a FACS analysis using fluorescently labelled MARK3-A11-RNMSFRIK peptide tetramers (FIG. 12(b)).” left out
# [6] = system: CD8+ T cells; assay: HLA-A24 tetramer CyTOF screen of CRC patient PBMC; assay type: cell-based, human; conditions: 10 HLA-A24 positive CRC patients, validation cohort
# Experimental: To determine whether CRC patients have CD8+ T cells that target any of the 75 SVPs that bind to HLA-A24, a CyTOF screen was conducted on a new cohort of 10 HLA-A24 positive CRC patients (validation cohort) using MHC tetramer staining of PBMC (procedure for performing this screen is similar to that described in Example 13). In total, antigen-specific CD8+ T cells that target eight splice variant peptides were identified from this screen.
# [7] = molecular target: T1, MARK3 splice variant (inclusion of exon …); assay: multimer staining
# [8] = listed as MARK3 splice variant antigen
molecule,measurement,setting,value
SLPRFGYRK (LRR1 splice variant antigen),expansion of antigen-specific CD8+ T cells (immunogenicity),[1],observed only after stimulation; also recorded: immunogenic
same,antigen specific CD8+ T cells detected in CRC patients,[2],could be identified in one or more CRC patients
same,antigen specific CD8+ T cells detected in CRC patients,[2]; listed as SEQ ID NO: 36,detected
same,antigen specific CD8+ T cells detected in CRC patients,[2]; listed as SLPRFGYRK,detected in CRC patients
SSFYALEEK (NBPF9 splice variant antigen),number of CRC patients in which detected,[2],two
same,antigen specific CD8+ T cells detected in CRC patients,[2],could be identified in one or more CRC patients
RNMSFRFIK (MARK3 splice variant) [MARK3 peptide],positive hit out of 7 samples,"[3]; CyTOF screen, 7 GC patients",14%
same,CD8+ T-cells capable of recognizing the peptide antigen (HLA-A11 tetramer staining),[3],one out of 7
same,CD8+ T-cells capable of recognizing the peptide antigen (HLA-A11 tetramer staining),[3]; [8],"one of the patients, SC020, was found to be positive"
same,CD8+ T-cells capable of recognizing the peptide antigen (HLA-A11 tetramer staining),[3]; listed as MARK3 splice variant peptide,has CTLs that react
same,IFN-γ secreting CTLs,[4],IFN-γ secreting CTLs are only observed when PBMCs were stimulated with MARK3 peptide
same,IFN-γ secreting CTLs,[4]; [8],antigenic
same,presence of antigen-specific CD8 T cells confirmed by FACS,[5],confirmed
SCVSPSSELK (ZNF670 splice variant antigen),expansion of antigen-specific CD8+ T cells (immunogenicity),[1],observed only after stimulation; also recorded: immunogenic
same,number of CRC patients in which detected,[2],two
same,antigen specific CD8+ T cells detected in CRC patients,[2],could be identified in one or more CRC patients
VTSPSRRSK (CAMKK1 splice variant antigen),antigen specific CD8+ T cells detected in CRC patients,[2],could be identified in one or more CRC patients
LTMAVKAEK (ZC3HAV splice variant antigen) [ZC3HAV1],antigen specific CD8+ T cells detected in CRC patients,[2],could be identified in one or more CRC patients
KWPPATETL (MZF1 spliced variant antigen),antigen specific CD8+ T cells detected in CRC patients,[6],detected
"SSCSSCPLSK (EBV peptide sequence) [control peptide against the Epstein-Bar Virus (EBV) viral antigen, positive control, reference compound]",CD8+ T-cells capable of recognizing the peptide antigen (HLA-A11 tetramer staining),[3],positive
SIRQAFIRK (GRINA splice variant antigen),expansion of antigen-specific CD8+ T cells (immunogenicity),[1],observed only after stimulation; also recorded: immunogenic
same,antigen specific CD8+ T cells detected in CRC patients,[2],could be identified in one or more CRC patients
SYHSIPSLPRF (LRR1 splice variant antigen),antigen specific CD8+ T cells detected in CRC patients,[6],detected in CRC patients
same,antigen specific CD8+ T cells detected in CRC patients,[6]; listed as SEQ ID NO: 51,detected
VIVSASRTK (YAF2 splice variant antigen),antigen specific CD8+ T cells detected in CRC patients,[2],could be identified in one or more CRC patients
SQLDFVKTRK (PARD3 splice variant antigen),antigen specific CD8+ T cells detected in CRC patients,[2],could be identified in one or more CRC patients
B1,binding result,[7],recognises
